According to patent US9815842B2, “Pyrazolo pyrimidine derivatives and their use as MALT1 inhibitors” (Novartis AG, priority 2014, dated 2017):

Assays:
[1] = molecular target: C-domain of MALT1 (amino acids 329-824) (Homo sapiens (Human), UniProt Q9UDY8); test: MALT1 biochemical assay (fluorescence lifetime enzyme activity assay); conditions: 60 min pre-incubation, 2.5 nM enzyme, 1 μM peptide substrate
[2] = molecular target: cIAP2-MALT1 fusion protein (Homo sapiens, UniProt Q9UDY8); test: cell-based
Human IL2 promoter = Human IL2 promoter reporter gene assay (RGA) in Jurkat cells; type: cell-based; conditions: Jurkat clone K22 290_H23, anti-CD28 mAb + PMA stimulation 5.5 h
Summary of the method: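 Transfected Jurkat clone K22 290_H23 cells were pre-incubated with compounds 30 min at 37 °C, then stimulated 5.5 h with anti-CD28 mAb (15E8, 3 μg/ml) plus PMA (1 μg/ml). IL2-promoter reporter activity was read as BriteLitePlus bioluminescence.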

Chain of C-domain of MALT1 (amino acids 329-824) (Q9UDY8 329-824): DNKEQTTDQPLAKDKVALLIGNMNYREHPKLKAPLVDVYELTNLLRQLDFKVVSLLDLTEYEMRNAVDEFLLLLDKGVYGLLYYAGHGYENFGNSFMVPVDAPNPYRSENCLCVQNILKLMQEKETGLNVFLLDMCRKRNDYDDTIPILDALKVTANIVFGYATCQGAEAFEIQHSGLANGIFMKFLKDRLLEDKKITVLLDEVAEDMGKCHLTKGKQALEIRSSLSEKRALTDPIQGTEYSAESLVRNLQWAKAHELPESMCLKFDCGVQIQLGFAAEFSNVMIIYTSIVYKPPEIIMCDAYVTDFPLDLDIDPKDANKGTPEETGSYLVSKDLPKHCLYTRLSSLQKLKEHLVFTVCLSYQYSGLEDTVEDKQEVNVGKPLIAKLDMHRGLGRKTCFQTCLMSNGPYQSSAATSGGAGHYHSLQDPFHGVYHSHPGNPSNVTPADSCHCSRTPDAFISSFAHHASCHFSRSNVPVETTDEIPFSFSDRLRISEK
Chain of cIAP2-MALT1 fusion protein (Q9UDY8 2-824 limits assumed): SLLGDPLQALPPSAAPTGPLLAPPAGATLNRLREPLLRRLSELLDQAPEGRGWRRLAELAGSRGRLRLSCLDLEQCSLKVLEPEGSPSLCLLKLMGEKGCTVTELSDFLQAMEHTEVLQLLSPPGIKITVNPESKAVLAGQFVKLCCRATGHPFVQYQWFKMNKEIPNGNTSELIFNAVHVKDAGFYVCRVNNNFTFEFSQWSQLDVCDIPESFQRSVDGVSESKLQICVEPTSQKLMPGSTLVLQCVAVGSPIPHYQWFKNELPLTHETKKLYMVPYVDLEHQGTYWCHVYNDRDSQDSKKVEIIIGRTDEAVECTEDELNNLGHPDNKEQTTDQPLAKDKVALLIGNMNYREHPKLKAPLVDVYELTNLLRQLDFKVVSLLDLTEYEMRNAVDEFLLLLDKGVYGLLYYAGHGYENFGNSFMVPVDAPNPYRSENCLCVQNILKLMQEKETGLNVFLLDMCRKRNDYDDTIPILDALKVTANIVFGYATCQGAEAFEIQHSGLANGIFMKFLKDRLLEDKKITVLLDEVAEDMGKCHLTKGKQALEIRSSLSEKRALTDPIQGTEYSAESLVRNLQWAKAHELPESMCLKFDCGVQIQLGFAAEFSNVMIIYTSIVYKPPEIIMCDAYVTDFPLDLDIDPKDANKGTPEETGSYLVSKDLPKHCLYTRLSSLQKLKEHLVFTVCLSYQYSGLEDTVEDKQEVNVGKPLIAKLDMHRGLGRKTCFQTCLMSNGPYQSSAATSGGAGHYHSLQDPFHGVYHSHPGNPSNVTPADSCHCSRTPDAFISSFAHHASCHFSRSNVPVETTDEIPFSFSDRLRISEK

Row | SMILES | IC50 [1] [nM] | IC50 [2] [nM] | IC50 (Human IL2 promoter) [nM]
1 | COC(C)(C)c1c(NC(=O)Nc2cnc(-n3nccn3)c(Cl)c2)cnc2cc(Cl)nn12 [Example 14, 1-(5-chloro-6-(2H-1,2,3-triazol-2-yl)pyridin-3-yl)-3-(2-chloro-7-(2-methoxypropan-2-yl)pyrazolo[1,5-a]pyrimidin-6-yl)urea] | 3 | 49 | 67
2 | COC(=O)c1cc(Cl)cc(NC(=O)Nc2cnc3cc(Cl)nn3c2[C@H](C)OC)c1 [Example 13, (S)-methyl 3-chloro-5-(3-(2-chloro-7-(1-methoxyethyl)pyrazolo[1,5-a]pyrimidin-6-yl)ureido)benzoate] | 2 | 77 | 39
3 | COCC(C)(OC)c1c(NC(=O)Nc2cnc(-n3nccn3)c(Cl)c2)cnc2cc(Cl)nn12 (stereo not drawn) [Example 81, 1-(5-chloro-6-(2H-1,2,3-triazol-2-yl)pyridin-3-yl)-3-(2-chloro-7-(1,2-dimethoxypropan-2-y)pyrazolo[1,5-a]pyrimidin-6-yl)urea] | 5 | 95 | 63
4 | COCC1(c2c(NC(=O)Nc3cnc(-n4nccn4)c(Cl)c3)cnc3cc(Cl)nn23)CC1 [Example 76, 1-(5-chloro-6-(2H-1,2,3-triazol-2-yl)pyridin-3-yl)-3-(2-chloro-7-(1-(methoxymethyl)cyclopropyl)pyrazolo[1,5-a]pyrimidin-6-yl)urea] | 6 | 84 | 28
5 | COC(c1c(NC(=O)Nc2ccnc(C(F)(F)F)c2)cnc2cc(Cl)nn12)C1CCOCC1 (stereo not drawn) [Example 90, 1-(2-chloro-7-(methoxy(tetrahydro-2H-pyran-4-yl)methyl)pyrazolo[1,5-a]pyrimidin-6-yl)-3-(2-(trifluoromethyl)pyridin-4-yl)urea] | 97 | 696 | 927
6 | CC(C)c1c(NC(=O)Nc2cc(C(F)(F)F)cn(C)c2=O)cnc2cc(Cl)nn12 [Example 32, 1-(2-chloro-7-isopropylpyrazolo[1,5-a]pyrimidin-6-yl)-3-(1-methyl-2-oxo-5-(trifluoromethyl)-1,2-dihydropyridin-3-yl)urea] | 19 | 214 | 221
7 | CO[C@H](c1c(NC(=O)Nc2cnc(-n3nccn3)c(Cl)c2)cnc2cc(Cl)nn12)C(C)C [Example 74, (S)-1-(5-chloro-6-(2H-1,2,3-triazol-2-yl)pyridin-3-yl)-3-(2-chloro-7-(1-methoxy-2-methylpropyl)pyrazolo[1,5-a]pyrimidin-6-yl)urea] | 2 | 30 | 32
8 | CC(C)c1c(NC(=O)Nc2cnc(N3CCCS3(=O)=O)c(C(F)(F)F)c2)cnc2cc(Cl)nn12 [Example 27, 1-(2-chloro-7-isopropylpyrazolo[1,5-a]pyrimidin-6-yl)-3-(6-(1,1-dioxidoisothiazolidin-2-yl)-5-(trifluoromethyl)pyridin-3-yl)urea] | 6 | 54 | 248
9 | COc1ncc(NC(=O)Nc2cnc3cc(C)nn3c2C2(C)CC2)cc1Cl [Example 73, 1-(5-chloro-6-methoxypyridin-3-yl)-3-(2-methyl-7-(1-methylcyclopropyl)pyrazolo[1,5-a]pyrimidin-6-yl)urea] | 12 | 163 | 91
10 | COc1ncc(NC(=O)Nc2cnc3cc(Cl)nn3c2C(C)C)cc1Cl [Example 18, 1-(5-chloro-6-methoxypyridin-3-yl)-3-(2-chloro-7-isopropylpyrazolo[1,5-a]pyrimidin-6-yl)urea] | 3 | 149 | 207
11 | Cc1cc2ncc(NC(=O)Nc3cnc(-n4nccn4)c(Cl)c3)c(C3(C)CC3)n2n1 [Example 72, 1-(5-chloro-6-(2H-1,2,3-triazol-2-yl)pyridin-3-yl)-3-(2-methyl-7-(1-methylcyclopropyl)pyrazolo[1,5-a]pyrimidin-6-yl)urea] | 3 | 179 | 140

The remaining molecules from weak to strong by IC50 [1], led by results:

Row | IC50 [1] [nM] | IC50 [2] [nM] | IC50 (Human IL2 promoter) [nM] | SMILES
12 | 45 | 408 | 206 | COCC1(c2c(NC(=O)Nc3ccnc(C(F)(F)F)c3)cnc3cc(C)nn23)CC1 [Example 79, 1-(7-(1-(methoxymethyl)cyclopropyl)-2-methylpyrazolo[1,5-a]pyrimidin-6-yl)-3-(2-(trifluoromethyl)pyridin-4-yl)urea]
13 | 21 | 159 | 76 | COCC1(c2c(NC(=O)Nc3cnc(-n4nccn4)c(Cl)c3)cnc3cc(C)nn23)CC1 [Example 78, 1-(5-chloro-6-(2H-1,2,3-triazol-2-yl)pyridin-3-yl)-3-(7-(1-(methoxymethyl)cyclopropyl)-2-methylpyrazolo[1,5-a]pyrimidin-6-yl)urea]
14 | 14 | 102 | 47 | CN(C)C1(c2c(NC(=O)Nc3cnc(-n4nccn4)c(Cl)c3)cnc3cc(Cl)nn23)CC1 [Example 88, 1-(5-chloro-6-(2H-1,2,3-triazol-2-yl)pyridin-3-yl)-3-(2-chloro-7-(1-(dimethylamino)cyclopropyl)pyrazolo[1,5-a]pyrimidin-6-yl)urea]
15 | 6 | 112 | 43 | COCCO[C@@H](C)c1c(NC(=O)Nc2cnc(OC)c(Cl)c2)cnc2cc(Cl)nn12 [Example 40, (S)-1-(5-chloro-6-methoxypyridin-3-yl)-3-(2-chloro-7-(1-(2-methoxyethoxy)ethyl)pyrazolo[1,5-a]pyrimidin-6-yl)urea]
16 | 5 | 100 | 72 | CO[C@H](c1c(NC(=O)Nc2ccnc(C(F)(F)F)c2)cnc2cc(Cl)nn12)C(C)C [Example 75, (S)-1-(2-chloro-7-(1-methoxy-2-methylpropyl)pyrazolo[1,5-a]pyrimidin-6-yl)-3-(2-(trifluoromethyl)pyridin-4-yl)urea]
17 | 5 | 85 | 134 | CC(C)c1c(NC(=O)Nc2cncc(Br)c2)cnc2cc(Cl)nn12 [Example 26, 1-(5-bromopyridin-3-yl)-3-(2-chloro-7-isopropylpyrazolo[1,5-a]pyrimidin-6-yl)urea]
18 | 5 | 79 | 14 | CO[C@@H](C)c1c(NC(=O)Nc2cnc(-n3nccn3)c(Cl)c2)cnc2cc(C)nn12 [Example 71, (S)-1-(5-chloro-6-(2H-1,2,3-triazol-2-yl)pyridin-3-yl)-3-(7-(1-methoxyethyl)-2-methylpyrazolo[1,5-a]pyrimidin-6-yl)urea]
19 | 5 | 131 | 214 | CC(C)c1c(NC(=O)Nc2cc(Cl)c(=O)n(C)c2-n2cccn2)cnc2cc(Cl)nn12 [Example 24, 1-(5-chloro-1-methyl-6-oxo-2-(1H-pyrazol-1-yl)-1,6-dihydropyridin-3-yl)-3-(2-chloro-7-isopropylpyrazolo[1,5-a]pyrimidin-6-yl)urea]
20 | 3 | 382 | 507 | CC(C)c1c(NC(=O)Nc2cc(Cl)c(-n3nccn3)c(Cl)c2)cnc2cc(Cl)nn12 [Example 30, 1-(2-chloro-7-isopropylpyrazolo[1,5-a]pyrimidin-6-yl)-3-(3,5-dichloro-4-(2H-1,2,3-triazol-2-yl)phenyl)urea]
